The record followed here is patent US11291669B2, “Compositions comprising phosphoinositide 3-kinase inhibitors and a second antiproliferative agent” (Karus Therapeutics Limited, priority 2015, dated 2022).

Series [1] is described as follows: Rodent pharmacokinetics, male CD1 mouse, plasma PK. To be noted: PO 10 mg/kg vs IV 5 mg/kg, read-out: F (oral bioavailability). It counts as in vivo. The method, then: Formulation: 10% DMSO, 90% Saline Dosing: 10 mg/kg P.O. and 5 mg/kg I.V. Plasma PK Summary: […]
A short description of series [2]: Rodent pharmacokinetics, male Balb/c mouse, plasma PK. It is filed as in vivo. The note with it: for Oral Bioavailability (F): summary table, PO 10 mg/kg. The method, then:
Animals in Group 1 were administered intravenously with Example B solution formulation in 20% Propylene Glycol, 50% of PEG 400 and 30% of (20% HPβCD in water) via tail vein at a dose of 3 mg/kg.
Animals in Group 2 were administered with oral solution formulation of Example B in 20% Propylene Glycol, 50% of PEG 400 and 30% of (20% HPβCD in water) at a dose of 10 mg/kg;
Dosing: 10 mg/kg P.O. and 3 mg/kg I.V.
Animals in Group 1 were administered intravenously with Example G solution formulation in 5% NMP, 5% solutol HS-15 in 90% HPIβCD solution (20% HPβCD in RO water) at 3 mg/kg dose.
Animals in Group 2 were administered orally with 10 mg/kg solution formulation of Example G in 5% NMP, 5% solutol HS-15 in 90% HPβCD solution (20% HPβCD in RO water)

Read-outs that look alike come from different tables or passages of the source.

On to `c1cc(-c2nc(N3CCOCC3)c3oc4ncc(CN5C[C@@H]6C[C@H]5CO6)cc4c3n2)c2cc[nH]c2c1` [Example A, 4-(1H-Indol-4-yl)-6-(morpholin-4-yl)-12-[(1S,4S)-2-oxa-5-azabicyclo[2.2.1]heptan-5-ylmethyl]-8-oxa-3,5,10-triazatricyclo[7.4.0.0^2,7]trideca-1(13),2(7),3,5,9,11-hexaene], for which the bioavailability in series [1] (mesylate salt) came out at 73.8%.

`c1cc(-c2nc(N3CCOCC3)c3oc4ncc(CN5CCC6(CC5)COC6)cc4c3n2)c2cc[nH]c2c1` [Example B, 4-(1H-Indol-4-yl)-6-(morpholin-4-yl)-12-{2-oxa-7-azaspiro[3.5]nonan-7-ylmethyl}-8-oxa-3,5,10-triazatricyclo[7.4.0.0^2,7]trideca-1(13),2(7),3,5,9,11-hexaene]: the Clearance in series [2] (IV, 3 mg/kg, mesylate salt) was 33.06 mL/min/kg. The “Oral Bioavailability (F)” value in series [2] is listed as 74.

Consider `c1cc(-c2nc(N3CCOCC3)c3oc4ncc(CN5CCCCC5)cc4c3n2)c2cc[nH]c2c1` [Example I in WO2011/021038, reference compound], for which the bioavailability in series [1] (HCl salt) was 29.6%.

Regarding `c1cc(-c2nc(N3CCOCC3)c3oc4ncc(CN5CCC56COC6)cc4c3n2)c2cc[nH]c2c1` [Example G, 4-(1H-indol-4-yl)-6-(morpholin-4-yl)-12-{6-oxa-1-azaspiro[3.3]heptan-1-ylmethyl}-8-oxa-3,5,10-triazatricyclo[7.4.0.0^2,7]trideca-1(13), 2(7), 3,5,9,11-hexaene], in series [2], the “Oral Bioavailability (F)” value is given as 30.
